Assay results published in US20260274856A1, “COVALENT CEREBLON LIGANDS” (C4 THERAPEUTICS, INC., priority 2023, published 2026).
Like-named read-outs stand apart in the source and are kept apart here.

Biological target: mutant BRAF V600E (Homo sapiens, UniProt P15056, V600E)
Experiment: BRAF V600E HiBiT Degradation Assay in A375.10 cells
Conditions: for HiBIT-Degradation A375.10 BRAF 24 hours IP nM / HiBIT-Degradation A375.10 BRAF 2 hours IP nM: inflection point of the dose-response curve
[1] = read-out: HiBIT-Degradation A375.10 BRAF 24 hours DC50 nM, 24 hours, A375.10 cells
[2] = read-out: HiBIT-Degradation A375.10 BRAF 24 hours Emax
[3] = read-out: HIBIT-Degradation A375.10 BRAF 2 hours DC50 nM, 2 hours, A375.10 cells
[4] = read-out: HiBIT-Degradation A375.10 BRAF 2 hours Emax

mutant BRAF V600E, sequence (P15056 whole entry V600E): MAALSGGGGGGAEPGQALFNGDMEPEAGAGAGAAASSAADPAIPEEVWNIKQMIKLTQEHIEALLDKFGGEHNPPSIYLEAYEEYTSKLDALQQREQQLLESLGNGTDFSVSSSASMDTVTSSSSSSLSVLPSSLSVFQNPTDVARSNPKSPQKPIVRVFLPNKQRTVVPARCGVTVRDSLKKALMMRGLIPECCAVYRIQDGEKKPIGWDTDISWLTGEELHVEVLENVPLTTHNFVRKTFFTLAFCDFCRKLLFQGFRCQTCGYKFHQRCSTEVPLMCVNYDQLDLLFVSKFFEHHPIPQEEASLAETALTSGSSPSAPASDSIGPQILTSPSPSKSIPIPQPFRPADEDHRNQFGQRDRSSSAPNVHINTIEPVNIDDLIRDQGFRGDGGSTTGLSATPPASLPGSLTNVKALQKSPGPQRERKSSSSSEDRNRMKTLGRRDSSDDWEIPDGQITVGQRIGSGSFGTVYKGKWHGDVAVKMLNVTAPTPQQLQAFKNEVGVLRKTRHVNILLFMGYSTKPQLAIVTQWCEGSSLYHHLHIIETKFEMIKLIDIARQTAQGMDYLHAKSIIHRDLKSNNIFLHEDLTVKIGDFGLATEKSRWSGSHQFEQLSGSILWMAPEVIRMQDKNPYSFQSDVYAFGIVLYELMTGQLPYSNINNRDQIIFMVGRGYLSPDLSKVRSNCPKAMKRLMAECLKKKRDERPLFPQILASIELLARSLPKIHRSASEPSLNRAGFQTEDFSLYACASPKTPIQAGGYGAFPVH
Procedure: Compounds of this invention were tested for degradation of mutant BRAF V600E using the HiBiT assay, a luminescence-based assay for quantification of cellular protein levels using the Nano-Glo@HiBiT Lytic Detection System (Catalog No. N3050, Promega, Madison, WI USA). This assay utilizes the HiBiT tag on a protein of interest, which creates a luminescent signal in the presence of a complementing peptide and its substrate, the quantification of which 10 is proportional to the amount of HiBiT-tagged protein in the cell.
A375 cells were engineered to express HiBiT tagged BRAF V600E by CRISPR knock-in of the HiBiT tag to the endogenous BRAF V600E locus, followed by selection of a clonal population containing 15 the appropriate knock-in (referred to here as cell line A375.10). […] Cell culture flasks and 384-well microplates 20 were acquired from VWR (Radnor, PA, USA).
Plates were then spun briefly, and cells were incubated with compound at 37° C. for 2 hoursor 24 hours.
Following the appropriate treatment time, Nano-Glo® HiBiT Lytic Assay reagents were added to the cells per the manufacturer's instructions by adding 30ul of reagent per well, and 10 the luminescence signal was acquired by plate reader. Cells treated with DMSO only (no test compound treatment) were used as the negative control (N). Media only (no cells added) with Nano-Glo reagent addition was used as the background or positive control (P). The percent response of compound treated samples were calculated by subtracting out the background signal (P) and normalizing to the DMSO control (N) as follows. % Response=100 x (Treated Signal - Average (P))/(Average (N) - Average (P)).
Data were analyzed with a 4-parameter logistic fit to generate sigmoidal dose-response curves. […] The Emax, or maximum effect of each compound, represents the amount of residual protein remaining in the cell following compound treatment.
The experiment was conducted at least once for each compound. If the experiment was conducted multiple times, the data shown in the table is the average of the two or more experiments.

Structure (SMILES)	HiBIT-Degradation A375.10 BRAF 24 hours IP nM (24 hours, A375.10 cells)	DC50 [1]	Emax [2]	HiBIT-Degradation A375.10 BRAF 2 hours IP nM (2 hours, A375.10 cells)	DC50 [3]	Emax [4]	HiBIT-Degradation A375.10 BRAF 2 hours Emax (2 hours, A375.10 cells, residual protein remaining)
CCN(C)S(=O)(=O)Nc1ccc(F)c(Oc2ccc3ncn([C@@H]4COC5(CCN(C(=O)CN6CCC(c7ccc(C8CCC(=O)NC8=O)cc7OS(=O)(=O)F)CC6)CC5)C4)c(=O)c3c2)c1C#N (stereo partly drawn) [drawing 1210]	*** (<= 1 μM is ***)	< 1000 nM	< 60%	–	–	–	–
CCN(C)S(=O)(=O)Nc1ccc(F)c(Oc2ccc3ncn([C@H]4COC5(CCN(C(=O)CN6CCC(c7ccc(N8CCC(=O)NC8=O)cc7OS(=O)(=O)F)CC6)CC5)C4)c(=O)c3c2)c1C#N [drawing 1193]	–	–	–	* (>=10 μM is *)	> 10000 nM	> 95%	–
CCN(C)S(=O)(=O)Nc1ccc(F)c(Oc2ccc3ncn([C@H]4COC5(CCN(C(=O)CN6CCN(c7ccc(C8CCC(=O)NC8=O)cc7OS(=O)(=O)F)CC6)CC5)C4)c(=O)c3c2)c1C#N (stereo partly drawn) [drawing 1191]	–	–	–	*** (<= 1 μM is)	1000 to 10000 nM	< 60%	–
CCN(C)S(=O)(=O)Nc1ccc(F)c(Oc2ccc3ncn([C@@H]4COC5(CCN(C(=O)CN6CCC(c7ccc(N8CCC(=O)NC8=O)cc7OS(=O)(=O)F)CC6)CC5)C4)c(=O)c3c2)c1C#N [drawing 1192]	–	–	–	* (>=10 μM is *)	> 10000 nM	> 95%	–
CCN(C)S(=O)(=O)Nc1ccc(F)c(Oc2ccc3ncn([C@@H]4COC5(CCN(C(=O)CN6CCC(c7ccc(NC8CCC(=O)NC8=O)cc7S(=O)(=O)F)CC6)CC5)C4)c(=O)c3c2)c1C#N (stereo partly drawn) [drawing 1209]	–	–	–	* (>=10 μM is *)	> 10000 nM	60 to 95%	–
CCN(C)S(=O)(=O)Nc1ccc(F)c(Oc2ccc3ncn([C@@H]4COC5(CCN(C(=O)CN6CCC(c7ccc(OC8CCC(=O)NC8=O)cc7OS(=O)(=O)F)CC6)CC5)C4)c(=O)c3c2)c1C#N (stereo partly drawn) [drawing 1228]	** (<10 μM and >1 μM is **)	1000 to 10000 nM	< 60%	–	–	–	–
CCN(C)S(=O)(=O)Nc1ccc(F)c(Oc2ccc3ncn([C@@H]4COC5(CCN(C(=O)CN6CCN(c7ccc(N8CCC(=O)NC8=O)cc7OS(=O)(=O)F)CC6)CC5)C4)c(=O)c3c2)c1C#N [drawing 1195]	–	–	–	* (>=10 μM is *)	> 10000 nM	60 to 95%	–
CCN(C)S(=O)(=O)Nc1ccc(F)c(Oc2ccc3ncn([C@H]4COC5(CCN(C(=O)CN6CCC(c7ccc(N8CCC(=O)NC8=O)cc7OS(C)(=O)=O)CC6)CC5)C4)c(=O)c3c2)c1C#N [drawing 1205]	–	–	–	** (<10 μM and >1 μM is **)	1000 to 10000 nM	< 60%	–
CCN(C)S(=O)(=O)Nc1ccc(F)c(Oc2ccc3ncn([C@H]4COC5(CCN(C(=O)CN6CCN(c7ccc(N8CCC(=O)NC8=O)cc7OS(=O)(=O)F)CC6)CC5)C4)c(=O)c3c2)c1C#N [drawing 1213]	*** (<= 1 μM is ***)	1000 to 10000 nM	< 60%	–	–	–	–
CCN(C)S(=O)(=O)Nc1ccc(F)c(Oc2ccc3ncn([C@H]4COC5(CCN(C(=O)CN6CCC(c7ccc(NC8CCC(=O)NC8=O)cc7S(=O)(=O)F)CC6)CC5)C4)c(=O)c3c2)c1C#N (stereo partly drawn) [drawing 1215]	*** (<= 1 μM is ***)	< 1000 nM	< 60%	–	–	–	–
CCN(C)S(=O)(=O)Nc1ccc(F)c(Oc2ccc3ncn([C@H]4COC5(CCN(C(=O)CN6CCN(c7ccc(C8CCC(=O)NC8=O)cc7OS(=O)(=O)F)CC6)CC5)C4)c(=O)c3c2)c1C#N (stereo partly drawn) [drawing 1199]	–	–	–	*** (<= 1 μM is)	> 10000 nM	–	*** (<= 60% is)
CCN(C)S(=O)(=O)Nc1ccc(F)c(Oc2ccc3ncn([C@@H]4COC5(CCN(C(=O)CN6CCC(c7ccc(C8CCC(=O)NC8=O)cc7OS(C)(=O)=O)CC6)CC5)C4)c(=O)c3c2)c1C#N (stereo partly drawn) [drawing 1207]	–	–	–	** (<10 μM and >1 μM is **)	> 10000 nM	< 60%	–
CCN(C)S(=O)(=O)Nc1ccc(F)c(Oc2ccc3ncn([C@H]4COC5(CCN(C(=O)CN6CCC(c7ccc(OC8CCC(=O)NC8=O)cc7OS(=O)(=O)F)CC6)CC5)C4)c(=O)c3c2)c1C#N (stereo partly drawn) [drawing 1214]	*** (<= 1 μM is ***)	< 1000 nM	< 60%	–	–	–	–
CCN(C)S(=O)(=O)Nc1ccc(F)c(Oc2ccc3ncn([C@H]4COC5(CCN(C(=O)CN6CCC(c7ccc(OC8CCC(=O)NC8=O)cc7OS(C)(=O)=O)CC6)CC5)C4)c(=O)c3c2)c1C#N (stereo partly drawn) [drawing 1224]	*** (<= 1 μM is ***)	1000 to 10000 nM	< 60%	–	–	–	–
